Where a name gives a salt, the structure may show the parent alone.
Target: T1, His-PtcC (Ptc C-terminal tail) (Drosophila melanogaster, UniProt P18502)
T1 sequence (P18502 1105-1286): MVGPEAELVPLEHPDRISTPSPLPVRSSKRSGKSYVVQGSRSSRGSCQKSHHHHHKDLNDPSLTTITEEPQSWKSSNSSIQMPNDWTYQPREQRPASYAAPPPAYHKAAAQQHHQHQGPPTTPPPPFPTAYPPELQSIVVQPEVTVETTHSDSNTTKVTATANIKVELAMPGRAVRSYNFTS
Assay: solid-phase lipid dot blot
Format: binding
Conditions: 2 ul of 50 uM lipid on PVDF; 1 ug/ml protein in PBS; 4 C overnight

Structure (SMILES): CCCCCCCCCCCCCCCCCC(=O)OC[C@H](COP(=O)(O)O)OC(=O)CCCCCCCCCCCCCCCCC [DSPA, 1,2-Distearoyl-sn-glycero-3-phosphate (sodium salt)]
- solid-phase lipid dot blot: His-PtcC interacted only with DSPA and DPPA, both of which are saturated forms of PA

— PMC10661859 (Science signaling, 2023)
